Remaining binding data for 3 compounds are collected here from patent US12275731B2, “Azaindole inhibitors of wild-type and mutant forms of LRRK2” (DANA-FARBER CANCER INSTITUTE, INC., priority 2018, dated 2025).

Experiment in all cases: KinomeScan profiling
What all share (assay type): binding

One assay addresses CDC2L1 (Homo sapiens, UniProt P21127). The conditions noted are these: CDC2L1, 1 μM; read-out: % control. The essentials:
(§1)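 Luminescence (RLU) was converted to percent of control, with DMSO set as 100% and a reference compound as 0%. Test compounds were run at 1 μM against 468 kinases. Kinases showing below 35% of control were scored as bound.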

The next assay concerns the target CDKL3 (Homo sapiens, UniProt Q8IVW4). The conditions noted are these: CDKL3, 1 μM; read-out: % control. The essentials:
as §1

The next assay concerns the target CSNK1G3 (Homo sapiens, UniProt Q9Y6M4). The conditions noted are these: CSNK1G3, 1 μM; read-out: % control. The procedure, abridged: as §1
In a further assay the target is T1, PIKFYVE (Homo sapiens, UniProt Q9Y2I7).
T1 construct: purchased KinomeScan® (panel service)
The conditions noted are these: read-out: % control. The procedure, abridged: as §1

The next assay addresses RET(V804L) (Homo sapiens, UniProt P07949, V804L). The conditions noted are these: read-out: % control. The procedure, abridged:
as §1

A further assay deals with T2, TTK (Homo sapiens, UniProt P33981).
T2 sequence (P33981 1-857): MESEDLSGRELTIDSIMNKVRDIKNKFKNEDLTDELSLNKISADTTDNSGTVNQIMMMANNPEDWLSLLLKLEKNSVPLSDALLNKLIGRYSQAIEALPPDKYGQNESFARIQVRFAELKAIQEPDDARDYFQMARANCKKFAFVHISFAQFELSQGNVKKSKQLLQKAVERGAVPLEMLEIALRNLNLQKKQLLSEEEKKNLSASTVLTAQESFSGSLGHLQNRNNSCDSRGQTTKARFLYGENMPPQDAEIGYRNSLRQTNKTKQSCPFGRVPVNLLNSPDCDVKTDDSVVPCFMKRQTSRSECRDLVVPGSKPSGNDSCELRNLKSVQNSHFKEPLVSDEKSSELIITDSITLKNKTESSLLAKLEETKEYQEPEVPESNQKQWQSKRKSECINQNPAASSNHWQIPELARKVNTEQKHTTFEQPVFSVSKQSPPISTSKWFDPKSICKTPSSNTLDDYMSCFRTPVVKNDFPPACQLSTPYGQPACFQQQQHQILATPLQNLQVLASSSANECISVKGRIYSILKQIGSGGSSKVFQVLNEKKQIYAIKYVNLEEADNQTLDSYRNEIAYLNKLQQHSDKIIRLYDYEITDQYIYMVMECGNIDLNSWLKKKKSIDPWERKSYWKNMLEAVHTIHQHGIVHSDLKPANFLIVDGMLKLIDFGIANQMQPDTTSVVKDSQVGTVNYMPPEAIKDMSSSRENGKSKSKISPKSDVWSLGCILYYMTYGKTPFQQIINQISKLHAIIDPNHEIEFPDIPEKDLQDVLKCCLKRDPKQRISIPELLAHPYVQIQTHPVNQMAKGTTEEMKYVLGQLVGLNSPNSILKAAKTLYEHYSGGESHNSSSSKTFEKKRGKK
The settings on record: read-out: % control. The essentials: as §1

Another assay addresses T3, ULK2 (Homo sapiens, UniProt Q8IYT8).
T3 sequence (Q8IYT8 1-1036): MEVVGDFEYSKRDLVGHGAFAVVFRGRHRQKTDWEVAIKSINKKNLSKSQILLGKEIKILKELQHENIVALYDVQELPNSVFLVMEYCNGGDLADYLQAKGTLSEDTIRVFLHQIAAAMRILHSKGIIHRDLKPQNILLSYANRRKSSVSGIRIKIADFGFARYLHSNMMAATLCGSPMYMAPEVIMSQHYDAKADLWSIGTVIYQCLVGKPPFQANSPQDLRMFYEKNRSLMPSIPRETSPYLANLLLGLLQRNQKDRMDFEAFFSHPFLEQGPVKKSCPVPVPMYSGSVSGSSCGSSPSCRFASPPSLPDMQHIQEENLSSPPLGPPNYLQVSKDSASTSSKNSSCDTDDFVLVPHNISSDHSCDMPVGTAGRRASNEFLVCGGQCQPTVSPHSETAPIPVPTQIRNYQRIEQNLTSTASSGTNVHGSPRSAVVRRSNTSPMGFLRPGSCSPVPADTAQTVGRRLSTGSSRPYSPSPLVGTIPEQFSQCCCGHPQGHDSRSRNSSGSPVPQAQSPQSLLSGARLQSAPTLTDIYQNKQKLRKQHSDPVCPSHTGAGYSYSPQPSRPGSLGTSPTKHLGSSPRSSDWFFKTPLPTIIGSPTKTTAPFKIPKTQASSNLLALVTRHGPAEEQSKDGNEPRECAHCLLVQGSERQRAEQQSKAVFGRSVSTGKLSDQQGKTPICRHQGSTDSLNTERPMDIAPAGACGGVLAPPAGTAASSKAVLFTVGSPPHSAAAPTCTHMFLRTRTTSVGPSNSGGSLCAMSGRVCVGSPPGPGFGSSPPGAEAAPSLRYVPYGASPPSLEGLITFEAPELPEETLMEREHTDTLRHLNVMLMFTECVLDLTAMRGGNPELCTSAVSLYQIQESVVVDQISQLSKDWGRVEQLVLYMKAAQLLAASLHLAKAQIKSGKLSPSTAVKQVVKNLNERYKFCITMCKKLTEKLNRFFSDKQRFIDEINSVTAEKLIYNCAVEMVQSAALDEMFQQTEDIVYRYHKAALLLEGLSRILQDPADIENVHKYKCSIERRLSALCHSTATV
The conditions noted are these: ULK2, 1 μM; read-out: % control. The procedure, abridged: as §1

A further assay deals with WNK3 (Homo sapiens, UniProt Q9BYP7). The settings on record: WNK3, 1 μM; read-out: % control. The essentials:
as §1

For the next assay, the target named is p38-beta (Homo sapiens, UniProt Q15759). The conditions noted are these: read-out: % control. The essentials:
as §1

RET(V804L), sequence (P07949 29-1114 V804L): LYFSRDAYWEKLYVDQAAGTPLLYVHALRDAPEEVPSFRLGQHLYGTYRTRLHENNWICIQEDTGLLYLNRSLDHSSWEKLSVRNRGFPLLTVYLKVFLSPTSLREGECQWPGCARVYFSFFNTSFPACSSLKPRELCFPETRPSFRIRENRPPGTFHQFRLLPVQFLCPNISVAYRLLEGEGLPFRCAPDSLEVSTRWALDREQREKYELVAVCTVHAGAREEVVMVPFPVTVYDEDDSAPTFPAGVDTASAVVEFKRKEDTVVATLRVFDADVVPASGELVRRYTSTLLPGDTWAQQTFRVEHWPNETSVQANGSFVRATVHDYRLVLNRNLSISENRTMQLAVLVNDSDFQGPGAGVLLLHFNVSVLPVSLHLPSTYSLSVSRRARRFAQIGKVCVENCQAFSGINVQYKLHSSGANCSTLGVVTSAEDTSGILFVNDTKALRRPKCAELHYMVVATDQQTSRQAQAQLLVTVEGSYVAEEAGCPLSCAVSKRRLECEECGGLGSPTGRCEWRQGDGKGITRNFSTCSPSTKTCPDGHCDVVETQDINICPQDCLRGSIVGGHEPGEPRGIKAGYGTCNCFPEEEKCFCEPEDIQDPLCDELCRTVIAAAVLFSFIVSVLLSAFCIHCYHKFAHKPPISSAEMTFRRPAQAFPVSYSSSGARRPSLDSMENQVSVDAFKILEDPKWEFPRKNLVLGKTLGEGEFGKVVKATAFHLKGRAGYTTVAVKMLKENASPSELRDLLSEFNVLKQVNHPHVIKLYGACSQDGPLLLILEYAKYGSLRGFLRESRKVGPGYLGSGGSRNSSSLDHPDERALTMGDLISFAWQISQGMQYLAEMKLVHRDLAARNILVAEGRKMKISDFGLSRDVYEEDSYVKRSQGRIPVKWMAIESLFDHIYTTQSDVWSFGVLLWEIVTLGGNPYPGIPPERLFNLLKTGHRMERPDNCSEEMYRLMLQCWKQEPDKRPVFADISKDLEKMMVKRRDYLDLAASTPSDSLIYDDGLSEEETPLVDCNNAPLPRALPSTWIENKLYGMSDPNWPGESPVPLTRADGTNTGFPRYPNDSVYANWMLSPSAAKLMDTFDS
WNK3, sequence (Q9BYP7 whole entry): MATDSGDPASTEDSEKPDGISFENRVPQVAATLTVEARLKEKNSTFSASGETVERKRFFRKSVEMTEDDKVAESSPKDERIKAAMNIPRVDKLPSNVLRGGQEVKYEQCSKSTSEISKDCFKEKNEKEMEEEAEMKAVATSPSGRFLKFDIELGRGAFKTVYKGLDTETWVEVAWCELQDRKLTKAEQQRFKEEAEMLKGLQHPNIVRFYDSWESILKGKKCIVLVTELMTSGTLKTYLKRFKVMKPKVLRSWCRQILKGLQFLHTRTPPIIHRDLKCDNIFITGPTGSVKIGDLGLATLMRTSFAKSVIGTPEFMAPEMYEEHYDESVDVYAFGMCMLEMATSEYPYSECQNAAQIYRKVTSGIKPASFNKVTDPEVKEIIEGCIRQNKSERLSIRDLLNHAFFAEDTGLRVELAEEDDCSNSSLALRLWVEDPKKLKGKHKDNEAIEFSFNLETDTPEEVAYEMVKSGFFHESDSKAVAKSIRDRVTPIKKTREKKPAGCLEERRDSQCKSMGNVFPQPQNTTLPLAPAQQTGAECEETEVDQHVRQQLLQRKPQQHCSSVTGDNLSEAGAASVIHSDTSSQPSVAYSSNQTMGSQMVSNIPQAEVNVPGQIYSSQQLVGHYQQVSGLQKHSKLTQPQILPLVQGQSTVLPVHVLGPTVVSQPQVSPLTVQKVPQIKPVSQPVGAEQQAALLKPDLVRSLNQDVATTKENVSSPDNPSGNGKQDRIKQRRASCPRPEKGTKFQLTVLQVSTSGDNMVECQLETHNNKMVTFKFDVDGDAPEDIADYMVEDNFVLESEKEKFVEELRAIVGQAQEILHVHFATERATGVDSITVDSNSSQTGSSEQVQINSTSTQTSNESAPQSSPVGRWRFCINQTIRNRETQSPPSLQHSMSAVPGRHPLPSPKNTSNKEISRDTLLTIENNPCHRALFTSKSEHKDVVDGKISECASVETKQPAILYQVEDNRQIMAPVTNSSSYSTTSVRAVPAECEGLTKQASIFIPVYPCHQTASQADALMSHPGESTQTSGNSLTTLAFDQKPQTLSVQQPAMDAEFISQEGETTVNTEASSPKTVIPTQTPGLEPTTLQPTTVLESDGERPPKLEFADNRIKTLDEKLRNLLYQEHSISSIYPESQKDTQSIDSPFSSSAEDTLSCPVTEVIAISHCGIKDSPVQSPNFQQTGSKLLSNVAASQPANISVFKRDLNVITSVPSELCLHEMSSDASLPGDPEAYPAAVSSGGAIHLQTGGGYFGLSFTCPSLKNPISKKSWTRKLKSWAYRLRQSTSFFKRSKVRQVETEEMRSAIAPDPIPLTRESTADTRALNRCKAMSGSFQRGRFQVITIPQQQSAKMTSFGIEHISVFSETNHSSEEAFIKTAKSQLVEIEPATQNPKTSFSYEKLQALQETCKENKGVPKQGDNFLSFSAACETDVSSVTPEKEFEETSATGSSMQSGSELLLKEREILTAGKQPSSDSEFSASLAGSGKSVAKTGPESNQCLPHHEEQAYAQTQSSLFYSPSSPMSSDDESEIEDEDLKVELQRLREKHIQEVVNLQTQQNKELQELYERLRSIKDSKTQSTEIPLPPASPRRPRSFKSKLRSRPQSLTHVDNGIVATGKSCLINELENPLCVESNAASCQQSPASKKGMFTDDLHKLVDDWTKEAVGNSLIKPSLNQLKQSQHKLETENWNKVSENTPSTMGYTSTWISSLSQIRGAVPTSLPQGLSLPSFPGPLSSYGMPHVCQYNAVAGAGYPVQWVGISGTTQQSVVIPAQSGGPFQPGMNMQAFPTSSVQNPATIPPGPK
T1 sequence (Q9Y2I7 whole entry): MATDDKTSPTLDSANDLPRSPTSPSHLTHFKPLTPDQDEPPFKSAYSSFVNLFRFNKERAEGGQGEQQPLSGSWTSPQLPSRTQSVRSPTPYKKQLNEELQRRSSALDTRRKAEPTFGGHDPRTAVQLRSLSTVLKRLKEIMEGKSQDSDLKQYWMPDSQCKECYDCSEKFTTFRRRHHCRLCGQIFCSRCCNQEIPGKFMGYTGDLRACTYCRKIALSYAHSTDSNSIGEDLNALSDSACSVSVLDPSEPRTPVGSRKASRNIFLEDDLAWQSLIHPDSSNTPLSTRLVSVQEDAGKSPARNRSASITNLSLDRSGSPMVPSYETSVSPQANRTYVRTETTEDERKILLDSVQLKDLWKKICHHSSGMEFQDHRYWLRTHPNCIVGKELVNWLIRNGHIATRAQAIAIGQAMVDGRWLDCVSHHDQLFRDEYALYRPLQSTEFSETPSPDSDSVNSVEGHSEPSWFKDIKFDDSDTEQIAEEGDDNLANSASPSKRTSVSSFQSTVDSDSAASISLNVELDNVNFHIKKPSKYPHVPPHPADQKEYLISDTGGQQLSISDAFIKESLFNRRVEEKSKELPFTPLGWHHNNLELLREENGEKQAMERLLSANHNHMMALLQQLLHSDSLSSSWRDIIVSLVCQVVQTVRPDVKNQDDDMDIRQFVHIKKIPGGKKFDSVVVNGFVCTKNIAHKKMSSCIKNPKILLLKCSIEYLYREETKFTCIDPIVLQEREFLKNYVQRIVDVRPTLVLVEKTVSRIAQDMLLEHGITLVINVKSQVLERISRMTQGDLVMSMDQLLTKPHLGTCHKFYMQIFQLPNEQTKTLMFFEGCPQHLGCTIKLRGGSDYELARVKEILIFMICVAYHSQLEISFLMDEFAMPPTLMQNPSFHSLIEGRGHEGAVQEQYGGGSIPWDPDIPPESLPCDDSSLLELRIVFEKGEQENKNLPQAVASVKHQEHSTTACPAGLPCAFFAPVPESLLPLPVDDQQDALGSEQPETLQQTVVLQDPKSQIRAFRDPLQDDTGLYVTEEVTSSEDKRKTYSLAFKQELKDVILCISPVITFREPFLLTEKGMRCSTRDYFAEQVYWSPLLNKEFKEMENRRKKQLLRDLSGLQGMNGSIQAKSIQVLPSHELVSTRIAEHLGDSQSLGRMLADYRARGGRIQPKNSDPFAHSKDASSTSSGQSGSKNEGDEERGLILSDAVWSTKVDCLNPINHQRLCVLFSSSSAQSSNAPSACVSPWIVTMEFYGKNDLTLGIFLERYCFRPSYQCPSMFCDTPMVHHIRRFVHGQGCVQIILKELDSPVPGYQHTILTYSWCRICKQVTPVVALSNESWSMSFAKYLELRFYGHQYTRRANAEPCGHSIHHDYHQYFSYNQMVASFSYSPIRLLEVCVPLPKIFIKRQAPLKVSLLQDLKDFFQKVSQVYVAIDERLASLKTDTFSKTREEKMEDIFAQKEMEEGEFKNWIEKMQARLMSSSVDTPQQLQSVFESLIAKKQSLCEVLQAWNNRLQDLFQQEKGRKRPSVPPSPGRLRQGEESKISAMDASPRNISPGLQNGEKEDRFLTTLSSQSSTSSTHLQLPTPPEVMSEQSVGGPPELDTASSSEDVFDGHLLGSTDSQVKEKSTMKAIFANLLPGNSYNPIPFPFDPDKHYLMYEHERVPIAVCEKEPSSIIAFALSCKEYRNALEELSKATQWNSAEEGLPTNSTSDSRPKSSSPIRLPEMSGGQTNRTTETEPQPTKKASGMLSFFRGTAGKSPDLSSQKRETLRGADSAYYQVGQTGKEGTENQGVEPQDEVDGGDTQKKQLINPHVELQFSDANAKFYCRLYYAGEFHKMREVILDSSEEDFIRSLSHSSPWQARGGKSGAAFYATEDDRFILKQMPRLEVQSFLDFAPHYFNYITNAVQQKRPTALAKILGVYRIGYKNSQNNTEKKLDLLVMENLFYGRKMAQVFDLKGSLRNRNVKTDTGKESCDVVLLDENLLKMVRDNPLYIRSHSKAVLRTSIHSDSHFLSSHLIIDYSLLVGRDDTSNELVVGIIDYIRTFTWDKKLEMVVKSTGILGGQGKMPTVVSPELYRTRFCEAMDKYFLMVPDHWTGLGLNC

In the case of `CNc1c(-c2cnn([C@H]3CCN(C(C)=O)C[C@@H]3F)c2)cnc2[nH]cc(Cl)c12` [Compound 77, 1-((3S,4S)-4-(4-(3-chloro-4-(methylamino)-1H-pyrrolo[2,3-b]pyridin-5-yl)-1H-pyrazol-1-yl)-3-fluoropiperidin-1-yl)ethan-1-one], the remaining binding at 1 µM on CDC2L1 was determined as 99%; at CDKL3, 94%; at CSNK1G3, 24%; at PIKFYVE it was 53%; on RET(V804L) it was 45%; on TTK, 34%. The results for the remaining binding at 1 µM at ULK2, on WNK3 and on p38-beta were 15%, 86% and 95%, respectively.

On to `CNc1c(-c2ccc(C(=O)N3CCC(N4CCOCC4)CC3)cc2)cnc2[nH]cc(Cl)c12` [Compound 96, (4-(3-chloro-4-(methylamino)-1H-pyrrolo[2,3-b]pyridin-5-yl)phenyl)(4-morpholinopiperidin-1-yl)methanone], for which the remaining binding at 1 µM on CDC2L1 came to 96%; at CDKL3, 100%; on CSNK1G3, 16%; on PIKFYVE it was 66%; on RET(V804L), 59%; on TTK, 3.6%. Besides, the remaining binding at 1 µM was 8.7% at ULK2, 73% on WNK3 and 58% on p38-beta.

`O=C(c1ccc(-c2cnc3[nH]cc(Cl)c3c2NC2CCCC2)cc1)N1CCC(N2CCOCC2)CC1` [Compound 101, (4-(3-chloro-4-(cyclopentylamino)-1H-pyrrolo[2,3-b]pyridin-5-yl)phenyl)(4-morpholinopiperidin-1-yl)methanone]: the remaining binding at 1 µM at CDC2L1 was 94%; at CDKL3, 100%; on CSNK1G3 it was 93%; at PIKFYVE, 98%; on RET(V804L), 97%; at TTK it was 54%. Besides, the remaining binding at 1 µM at ULK2 turned out to be 98%; at WNK3, 92%; on p38-beta, 92%.
